Test results as given in patent US6060481A, “Method for improving insulin sensitivity using an adenosine receptor antagonist” (priority 1999, dated 2000).

Legend:
[1] = molecular target: T1, rat A3 receptor (Rattus norvegicus, UniProt P28647); conditions: rat versus human A3; cited from earlier work
T1 sequence (P28647 1-320): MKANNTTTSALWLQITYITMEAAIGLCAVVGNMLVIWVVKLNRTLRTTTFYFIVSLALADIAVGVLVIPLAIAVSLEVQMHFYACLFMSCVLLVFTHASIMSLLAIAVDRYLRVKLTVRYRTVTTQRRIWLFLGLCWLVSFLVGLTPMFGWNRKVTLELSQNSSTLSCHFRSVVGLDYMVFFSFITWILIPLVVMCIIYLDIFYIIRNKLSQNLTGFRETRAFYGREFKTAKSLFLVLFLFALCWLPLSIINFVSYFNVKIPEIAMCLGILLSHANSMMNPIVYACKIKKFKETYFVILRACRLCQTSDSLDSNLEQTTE

[2] = system: glucose uptake by individual tissues; test: In vivo tissue glucose uptake with 14C 2-deoxyglucose during clamp; parameters: species or system Zucker rats; conditions: for Decrease in glucose uptake by adipose tissue: epididymal fat, normalized to wet weight
Experimental: In vivo glucose uptake by individual tissues was determined using [^14 C]-labeled 2-deoxyglucose (2-DG), as described previously in, for example, the Lang references cited above. Tissue-specific glucose uptake was determined between 140 and 180 min after the start of the euglycemic hyperinsulinemic clamp. A tracer amount of 2-DG (8 μCi/rat; Amersham, Arlington Heights, Ill.) was injected intravenously, and tissues obtained 40 min later. Prior to tissue collection, serial arterial blood samples (0.2 ml) were withdrawn into heparinized syringes, plasma deproteinized with perchloric acid and ^14 C-radioactivity determined. Thereafter, animals were anesthetized with sodium pentobarbital, exsanguinated, and selected tissues were excised to determine the intracellular accumulation of phosphorylated 2-DG.
During the hyperinsulinemic clamp, blood glucose concentrations were determined at 10-min intervals using the YSI glucose analyzer (Yellow Springs, Ohio). Glucose specific activity was determined on neutralized supernatants of deproteinized plasma as taught by Lang, Am. J. Physiol, 263 (Endocrinol. Metab. 26): E703-D711 (1992). Tissue samples (600-900 mg wet wt) were immersed in ice-cold 0.5 N PCA, homogenized, and centrifuged. The concentration of phosphorylated 2-DG in tissues was calculated as the difference between total ^14 C-radioactivity of the neutral extract and the ^14 C-radioactivity remaining after Somogyi treatment as described in detail by Lang CH, Dobrescu C, and Meszaros K., Metabolism 39:1096-1107 (1990).
Rates of whole body glucose appearance (Ra) and disappearance (Rd) are calculated using the steady-state equations of Steele, Ann. NY Acad. Sci., 82:420-430 (1959). The glucose metabolic clearance rate (MCR) is calculated by dividing the glucose Rd by the prevailing glucose concentration. Since the prevailing insulin levels during the hyperinsulinemic clamp completely suppress endogenous glucose production, the rate of whole body glucose disposal equals the exogenous glucose infusion rate. The increment in insulin-stimulated glucose uptake (IMGU) for each animals is calculated by subtracting the basal endogenous glucose Ra from the measured rate of glucose disposal determined during the last 40 min of the clamp. In vivo glucose uptake for each tissue examined is calculated based on the accumulation of phosphorylated 2-DG by a respective tissue, the integrated 2-DG:glucose ratio in the plasma during the 40-min labeling period, and the lumped constant as described by Lang, Endocrinology, 128:645-653 (1991).

[3] = Zucker rats; cited from earlier work
[4] = obese rats, one week treatment, clamp

**Q.** What does the source list for `CCCn1c(=O)c2[nH]c(-c3ccc(C=CC(=O)O)cc3)nc2n(CCC)c1=O` [BWA1433, 1,3-dipropyl-8-(p-acrylic)phenylxanthine]?
**A.** KD of rat A3 receptor relative to human A3 receptor [1]: much higher; Glucose uptake under hyperinsulinemic conditions in heart ([2]; lean animals): unaffected; Glucose uptake under hyperinsulinemic conditions in liver ([2]; lean animals): unaffected; Decrease in glucose uptake by gastrocnemius ([2]; lean rats): 16%; Decrease in glucose uptake by soleus ([2]; lean rats): 12%; Decrease in glucose uptake by adipose tissue ([2]; lean rats): 48%; Change in glucose uptake in heart ([2]; obese rats): no significant change; Change in glucose uptake in liver ([2]; obese rats): no significant change; Decrease in glucose uptake by adipose tissue ([2]; obese rats): 54%; Increase in glucose uptake in gastrocnemius compared to vehicle-treated obese rats [2, 4]: 44%; Increase in glucose uptake in soleus compared to vehicle-treated obese rats [2, 4]: 47%; Reduction in glucose uptake by fat ([2]; on the basis of intracellular aqueous volume, both groups (lean, obese)): approximately 50%; Glucose tolerance [3]: improves glucose tolerance
